Where a SMILES comes first, the peptide text is derived from it. Bridges are numbered along the chain shown (N, C = ends).
Test: Complete redox cycle after DTT reduction: reoxidation by dissolved O2 and precipitation, 1H NMR
Assay type: physicochemical
Conditions: twofold excess of DTT, pH 7, 15 °C, sealed NMR tube
Protocol: Incomplete conversion, despite the presence of a large excess of the RA, provided evidence for the reoxidation of the reduced SS bond of the studied model systems. To study this process in detail, the in situ reoxidation of the DTT‐reduced protein samples at […] in sealed NMR tubes (pH 7, 15 °C, twofold excess of DTT) was monitored for several weeks.
Figure 8 The 50‐membered structure ensembles of A) E11_SS⇄E11_2SH and B) E5_SS⇄E5_2SH. The fold of E11_2SH is more compact than that of E5_2SH, which has more “open” conformers, in which the Cys residues are far from each other. This allows intermolecular, rather than intramolecular, reoxidation. The dissolved oxidized and reduced protein concentrations of C) E11_SS⇄E11_2 SH and D) E5_SS⇄E5_2SH (oxidized: blue; reduced: green) as a function of time. […] E) Estimated parameters of the complete redox cycles. […] Figure S11 contains all data for parameter estimation of E11_SS, E5_SS, and E2_SS. […]
Reoxidation can take place both intra‐ and intermolecularly. […] According to our semiquantitative analysis based on the recorded ^1H NMR spectra, the integral changes of the Trp Hϵ1 resonances both in the oxidized and reduced forms of the protein during reduction with DTT show a decrease in concentration over the observed period of redox time for both E2_SS and E5_SS. […]

Row | Compound | decrease of the initial dissolved protein concentration at the end of a complete redox cycle
1 | CC[C@H](C)[C@@H]1NC(=O)[C@H](Cc2ccc(O)cc2)NC(=O)[C@H](CC(C)C)NC(=O)[C@H](CCCNC(=N)N)NC(=O)[C@H](C(C)C)NC(=O)[C@@H](NC(=O)[C@H](CCC(=O)O)NC(=O)[C@H](CCC(=O)O)NC(=O)[C@@H](N)CCC(=O)O)CSSC[C@@H](C(=O)O)NC(=O)[C@@H]2CCCN2C(=O)[C@@H]2CCCN2C(=O)[C@@H]2CCCN2C(=O)[C@H](CCCNC(=N)N)NC(=O)CNC(=O)[C@H](CO)NC(=O)[C@H](CO)NC(=O)[C@@H]2CCCN2C(=O)CNC(=O)CNC(=O)[C@H](CC(=O)O)NC(=O)[C@H](CCCCN)NC(=O)[C@H](CC(C)C)NC(=O)[C@H](Cc2c[nH]c3ccccc23)NC(=O)[C@H](CCC(N)=O)NC1=O [E5_SS] (H-EEECVRLYIQWLKDGGPSSGRPPPC-OH; disulfide 4-25) | 68%
2 | CC[C@H](C)[C@@H]1NC(=O)[C@H](Cc2ccc(O)cc2)NC(=O)[C@H](CC(C)C)NC(=O)[C@H](CCCNC(=N)N)NC(=O)[C@H](C(C)C)NC(=O)[C@@H](NC(=O)[C@H](CCC(=O)O)NC(=O)[C@H](CCC(=O)O)NC(=O)[C@H](CCC(=O)O)NC(=O)[C@H](CCSC)NC(=O)[C@H](CCC(N)=O)NC(=O)[C@H](CCCCN)NC(=O)[C@H](CO)NC(=O)[C@H](CC(C)C)NC(=O)[C@@H](N)CC(=O)O)CSSC[C@@H](C(=O)O)NC(=O)[C@@H]2CCCN2C(=O)[C@@H]2CCCN2C(=O)[C@@H]2CCCN2C(=O)[C@H](CCCNC(=N)N)NC(=O)CNC(=O)[C@H](CO)NC(=O)[C@H](CO)NC(=O)[C@@H]2CCCN2C(=O)CNC(=O)CNC(=O)[C@H](CC(=O)O)NC(=O)[C@H](CCCCN)NC(=O)[C@H](CC(C)C)NC(=O)[C@H](Cc2c[nH]c3ccccc23)NC(=O)[C@H](CCC(N)=O)NC1=O [E11_SS] (H-DLSKQMEEECVRLYIQWLKDGGPSSGRPPPC-OH; disulfide 10-31) | remained the same

Reference: PMC7079008, “Compactness of Protein Folds Alters Disulfide‐Bond Reducibility by Three Orders of Magnitude: A Comprehensive Kinetic Case Study on the Reduction of Differently Sized Tryptophan Cage Model Proteins” (Chembiochem, 2019)
